Data taken from patent publication US8173649B2, “Glucokinase activator” (Kyorin Pharmaceutical Co., Ltd., priority 2006, dated 2012).

Legend:
ICR mice = test: Hypoglycemic activity test; assay type: in vivo; conditions: statement in words in the description
Experimental: Using male 7- to 9-week-old ICR mice (Charles River Laboratories Japan), the effect of each test compound on the blood glucose levels was observed. Specifically, each compound was dissolved in a 60:40 mixture of Gelucire44/14 (Gatefosse) and PEG400 and was orally administered to the animals after a 2-hour fasting period (30 mg/kg, 10 mL/kg). Using a tube coated with dipotassium ethylenediamine tetraacetate, blood samples were collected from the tail vein immediately before administration (Pre-value), and 0.5, 2 and 4 hours after administration. The blood samples were centrifuged (4° C., 3,600 g, 3 min) to obtain plasma samples.
Each sample was diluted 5-fold with physiological saline and the blood glucose level was measured using glucose CII-test Wako (Wako Pure Chemical Industries). 10 μL each of one of the samples, physiological saline and a 100 mg/dL standard glucose solution (200 mg/dL standard glucose solution diluted two-fold with physiological saline) were placed in each well of a 96-well flat plate. 150 μL of a color-forming solution was added to each well and the plate was left at 37° C. for 5 min to allow the solution to develop color. Using a Lucy2 luminescence reader (Aloka), the measurements were taken at OD=492 nm. The decrease in the sigma glucose (mean decrease in the glucose levels at each blood collection point relative to the Pre-value) was determined from the decrease in the glucose level at each blood collection point relative to the Pre-value.

[1] = In vitro liver microsome metabolic stability test, Method 1, human; assay type: in vitro ADME; conditions: microsomes
Experimental: (§1) In a glass test tube, each test compound was incubated with a solution containing liver microsomes of human (Xenotech) or murine (originally prepared from male 7-week-old ICR mice; Charles River Laboratories Japan) origin at 37° C. for 5 min to evaluate the metabolic stability of the compound. The incubation mixture contained 100 mM potassium phosphate buffer (pH 7.4, Wako Pure Chemical Industries), 3 mM MgCl2 (Wako Pure Chemical Industries), 5 mM glucose-6-phosphate (Roche), 1 mM EDTA (Tokyo Chemical Industry), 1 I.U. glucose 6-phosphate dehydrogenase (Roche) and 1 mg/mL liver microsome. A test compound was dissolved in DMSO and the solution was added to the reaction mixture to a final concentration of 1 μM. The metabolic process was initiated by the addition of an NADPH (Roche) solution to a final concentration of 1 mM and was terminated after 5 min by the addition of an equal volume of acetonitrile (Fischer). After termination of the process, the supernatant was separated by centrifugation and analyzed by a liquid chromatography-equipped mass spectrometer (SHIMADZU 2010A, Shimadzu) for the concentration of unchanged product.

[2] = In vitro liver microsome metabolic stability test, Method 1, murine; assay type: in vitro ADME, mice; conditions: mouse, microsomes
Experimental: as §1

[3] = In vivo pharmacokinetics test (oral bioavailability); design: species or system mice; conditions: male, ICR, mouse, plasma, 2 μmol/kg
Experimental: Using male 6-week-old ICR mice (Charles River Laboratories Japan), the oral bioavailability of each test compound was evaluated. Specifically, each test compound was dissolved in dimethylsulfoxide (DMSO, Sigma) and the solution was added to a 1/15 M aqueous solution of sodium dihydrogen phosphate (Wako Pure Chemical Industries) to a concentration of 200 μM. DMSO was added to a final concentration of 30%. The resulting solution was administered to animals. As an intravenous injection group, a group of ICR mice, fasted overnight, were injected in their tail veins with the test compound solution (1 μmol/kg, 5 mL/kg). 5, 15 and 30 minutes after and 1, 2, 4, 8 and 24 hours after the intravenous administration, blood samples were collected from the eyeground of each animal using a heparin-coated capillary tube. […] 10 μL of the separated plasma was diluted with 100 μL of physiological saline and 10 μL of dimethylsulfoxide (sigma) and analyzed by a liquid chromatography-equipped triple quadrupole mass spectrometer (API-3000, Applied Biosystems) for the plasma concentration of unchanged product. The area under the plasma concentration-time curve (AUC) was determined by the trapezoidal method. The bioavailability of a test compound was determined by dividing the average AUC of the oral administration group corrected for the dose by the average AUC of the intravenous administration group.

in vitro = conditions: microsomes, pH 7.4
Experimental: In a glass test tube, each test compound was incubated with a solution containing liver microsomes of human (Xenotech) or murine (originally prepared from male 7-week-old ICR mice; Charles River Laboratories Japan) origin at 37° C. for 25 min to evaluate the metabolic stability of the compound. The incubation mixture contained 100 mM potassium phosphate buffer (pH 7.4, Wako Pure Chemical Industries), 3 mM MgCl2 (Wako Pure Chemical Industries), 5 mM glucose-6-phosphate (Roche), 1 mM EDTA (Tokyo Chemical Industry), 1 I.U. glucose 6-phosphate dehydrogenase (Roche) and 0.2 mg/mL liver microsome. A test compound was dissolved in DMSO and the solution was added to the reaction mixture to a final concentration of 1 μM. The metabolic process was initiated by the addition of an NADPH (Roche) solution to a final concentration of 1 mM and was terminated after 25 min by the addition of an equal volume of acetonitrile (Fischer). After termination of the process, the supernatant was separated by centrifugation and analyzed by a liquid chromatography-equipped mass spectrometer (SHIMADZU 2010A, Shimadzu) for the concentration of unchanged product.

## CS(=O)(=O)c1ccc([C@H](CC2CC(F)C(F)C2)C(=O)Nc2nccs2)cc1 (single isomer, unassigned; (+)) [compound 2, (+)-3-[(1α,3α,4α)-3,4-difluorocyclopentyl]-2-(4-(methylsulfonyl)phenyl)-N-(thiazole-2-yl)propionamide]
ICR mice
  hypoglycemic activity: do not exhibit high hypoglycemic activity

## CS(=O)(=O)c1ccc(C(CC2CC(F)C(F)C2)C(=O)Nc2nccs2)cc1 (single isomer, unassigned; (-)) [compound 7, (−)-3-[(1β,3α,4α)-3,4-difluorocyclopentyl]-2-(4-(methylsulfonyl)phenyl)-N-(thiazole-2-yl)propionamide]
ICR mice
  hypoglycemic activity: do not exhibit high hypoglycemic activity

## Cn1ccc(NC(=O)C(CC2CC(F)C(F)C2)c2ccc(S(C)(=O)=O)cc2)n1 (single isomer, unassigned; (-)) [compound 3, (−)-3-[(1α,3α,4α)-3,4-difluorocyclopentyl]-2-(4-(methylsulfonyl)phenyl)-N-(1-methylpyrazole-3-yl)propionamide]
[1]
  metabolic clearance: ≤ 0.06 mL/min/mg protein
[2]
  metabolic clearance: ≤ 0.06 mL/min/mg protein

## CS(=O)(=O)c1ccc(C(CC2CC(F)C(F)C2)C(=O)Nc2nccs2)cc1 (single isomer, unassigned; (+)) [compound 8, (+)-3-[(1β,3α,4α)-3,4-difluorocyclopentyl]-2-(4-(methylsulfonyl)phenyl)-N-(thiazole-2-yl)propionamide]
ICR mice
  hypoglycemic activity: do not exhibit high hypoglycemic activity

## CS(=O)(=O)c1ccc(C(C[C@H]2C[C@@H](F)[C@@H](F)C2)C(=O)Nc2nccs2)cc1 (single isomer, unassigned; (-)) [Compound No. 1, (−)-3-[(1α,3α,4α)-3,4-difluorocyclopentyl]-2-(4-(methylsulfonyl)phenyl)-N-(thiazole-2-yl)propionamide]
[3]
  bioavailability: ≥ 50%
[1]; pH 7.4
  microsomal CLint at 1 μM: ≤ 60 µL/min/mg
[2]; male, ICR, pH 7.4
  microsomal CLint at 1 μM: ≤ 60 µL/min/mg
In vitro; human
  microsomal CLint at 1 μM: ≤ 50 µL/min/mg
In vitro; male, ICR, mouse
  microsomal CLint at 1 μM: ≤ 50 µL/min/mg
